Source: patent US6046217A, “2,3,5-trisubstituted pyridines as inhibitors of cyclooxygenase-2” (Merck Frosst Canada & Co., priority 1998, dated 2000)
Where two headings read alike, the source gives them in different places.

What was measured:
COX-1 [1] = biological target: T1, COX-1 (Homo sapiens, UniProt P23219); assay: Assay of COX-1 activity from U937 cell microsomes (PGE2); format: biochemical; design: Assay of COX-1 Activity from U937 Cell Microsomes; endogenous in cells; host or cells: U937 cells, 100,000 x g microsomal pellet; settings: 15 min preincubation
Experimental: U 937 cells are pelleted by centrifugation at 500×g for 5 min and washed once with phosphate-buffered saline and repelleted. Cells are resuspended in homogenization buffer consisting of 0.1 M Tris-HCl, pH 7.4, 10 mM EDTA, […] leupeptin, 2 μg/ml soybean trypsin inhibitor, 2 μg/ml aprotinin and 1 mM phenyl methyl sulfonyl fluoride. The cell suspension is sonicated 4 times for 10 sec and is centrifuged at 10,000×g for 10 min at 4° C. The supernatant is centrifuged at 100,000×g for 1 hr at 4° C. The 100,000×g microsomal pellet is resuspended in 0.1 M Tris-HCl, pH 7.4, 10 mM EDTA to approximately 7 mg protein/ml and stored at -80° C.
Microsomal preparations are thawed immediately prior to use, subjected to a brief sonication, and then diluted to a protein concentration of 125 μg/ml in 0.1 M Tris-HCl buffer, pH 7.4 containing 10 mM EDTA, 0.5 mM phenol, 1 mM reduced glutathione and 1 μM hematin. Assays are performed in duplicate in a final volume of 250 μl. Initially, 5 μl of DMSO vehicle or drug in DMSO are added to 20 μl of 0.1 M Tris-HCl buffer, pH 7.4 containing 10 mM EDTA in wells of a 96-deepwell polypropylene titre plate. 200 μl of the microsomal preparation are then added and pre-incubated for 15 min at room temperature before addition of 25 μl of […] arachidonic acid in […] Tris-HCl and 10 mM EDTA, pH 7.4. Samples are incubated for 40 min at room temperature and the reaction is stopped by the addition of 25 μl of 1 N HCl. Samples are neutralized with 25 μl of 1 N NaOH prior to quantitation of PGE2 content by radioimmunoassay (Dupont-NEN or Amersham assay kits). Cyclooxygenase activity is defined as the difference between PGE2 levels in samples incubated in the presence of arachidonic acid and ethanol vehicle.
In the assay, inhibition is determined by measuring the amount of prostaglandin E2 (PGE2) synthesized in the presence of arachidonic acid, cyclooxygenase-1 or cyclooxygenase-2 and a putative inhibitor.

COX-2 [2] = biological target: T2, COX-2 (Homo sapiens, UniProt P35354); assay: cell-based; settings: human whole blood, LPS-induced PGE2, 24 h
T2 sequence (P35354 18-604): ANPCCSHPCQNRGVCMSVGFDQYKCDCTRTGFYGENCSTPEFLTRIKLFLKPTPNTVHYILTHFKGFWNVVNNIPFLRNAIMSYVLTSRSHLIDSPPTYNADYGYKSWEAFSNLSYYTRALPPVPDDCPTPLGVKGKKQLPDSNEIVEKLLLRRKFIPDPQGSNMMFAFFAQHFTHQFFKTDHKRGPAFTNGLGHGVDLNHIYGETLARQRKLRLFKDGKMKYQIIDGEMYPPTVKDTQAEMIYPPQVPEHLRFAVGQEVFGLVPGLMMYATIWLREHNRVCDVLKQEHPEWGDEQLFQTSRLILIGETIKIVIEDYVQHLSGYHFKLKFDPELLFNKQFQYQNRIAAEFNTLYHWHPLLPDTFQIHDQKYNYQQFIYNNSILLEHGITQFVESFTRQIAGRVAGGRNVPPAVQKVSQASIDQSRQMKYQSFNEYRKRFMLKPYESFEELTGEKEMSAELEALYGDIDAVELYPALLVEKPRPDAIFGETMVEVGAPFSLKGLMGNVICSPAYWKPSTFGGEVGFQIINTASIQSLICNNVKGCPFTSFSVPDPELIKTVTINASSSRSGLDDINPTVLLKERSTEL
Description: (§1) As well, platelets in whole blood contain a large amount of the COX-1 enzyme. Immediately following blood clotting, platelets are activated through a thrombin-mediated mechanism. This reaction results in the production of thromboxane B2 (TxB2) via activation of COX-1. Thus, the effect of test compounds on TxB2 levels following blood clotting can be examined and used as an index for COX-1 activity. Therefore, the degree of selectivity by the test compound can be determined by measuring the levels of PGE2 after LPS induction (COX-2) and TxB2 following blood clotting (COX-1) in the same assay.
Fresh blood is collected in heparinized tubes by venipuncture from both male and female volunteers. The subjects have no apparent inflammatory conditions and have not taken any NSAIDs for at least 7 days prior to blood collection. Plasma is immediately obtained from a 2mL blood aliquot to use as blank (basal levels of PGE2). The remaining blood is incubated with LPS (100 μg/ml final concentration, Sigma Chem, #L-2630 from E. coli; diluted in 0.1% BSA (Phosphate buffered saline) for 5 minutes at room temperature. Five hundred […] aliquots of blood are incubated with either 2 μL of vehicle (DMSO) or 2 μL of a test compound at final concentrations varying from 10 nM to 30 μM for 24 hours at 37° C. At the end of the incubation, the blood is centrifuged at 12,000×g for 5 minutes to obtain plasma. A 100 μL aliquot of plasma is mixed with 400 μL of methanol for protein precipitation. The supernatant is obtained and is assayed for PGE2 using a radioimmunoassay kit (Amersham, RPA#530) after conversion of PGE2 to its methyl oximate derivative according to the manufacturer's procedure. […]

COX-1 [3] = biological target: T1, COX-1; assay: Human whole blood assay, COX-1 (clotting-induced TxB2 production); format: cell-based; design: platelets in whole blood contain a large amount of the COX-1 enzyme; endogenous in cells; host or cells: platelets in fresh human whole blood, clotting
Description: as §1
Fresh blood is collected into vacutainers containing no anticoagulants. […] The tubes are vortexed and incubated at 37° C. for 1 hour to allow blood to clot. At the end of incubation, serum is obtained by centrifugation (12,000×g for 5 min.). A 100 μL aliquot of serum is mixed with 400 μL of methanol for protein precipitation.

COX-2 [4] = biological target: T2, COX-2; assay: cell-based
Experimental: For cyclooxygenase assays, CHO[hCOX-1] cells from suspension cultures and CHO[hCOX-2] cells prepared by trypsinization of adherent cultures are harvested by centrifugation (300×g, 10 min) and washed once in HBSS containing 15 mM HEPES, pH 7.4, and resuspended in HBSS, 15 mM HEPES, pH 7.4, at a cell concentration of 1.5×10^6 cells/ml. Drugs to be tested are dissolved in DMSO to 66.7-fold the highest test drug concentration. […] Cells (0.3×10^6 cells in 200 μl) are preincubated with 3 μl of the test drug or DMSO vehicle for 15 min at 37° C. Working solutions of peroxide-free AA (5.5 μM and 110 μM AA for the CHO [hCOX-1] and CHO [COX-2] assays, respectively) are prepared by a 10-fold dilution of a concentrated AA solution in ethanol into HBSS containing 15 mM HEPES, pH 7.4. Cells are then challenged in the presence or absence of drug with the AA/HBSS solution to yield a final concentration of 0.5 μM AA in the CHO[hCOX-1] assay and a final concentration of 10 μM AA in the CHO[hCOX-2] assay. The reaction is terminated by the addition of 10 μl 1 N HCl followed by neutralization with 20 μl of 0.5 N NaOH. The samples are centrifuged at 300 ×g at 4° C. for 10 min, and an aliquot of the clarified supernatant is appropriately diluted for the determination of PGE2 levels using an enzyme-linked immunoassay for PGE2 (Correlate PGE2 enzyme immunoassay kit, Assay Designs, Inc.). Cyclooxygenase activity in the absence of test compounds is determined as the difference in PGE2 levels of cells challenged with arachidonic acid versus the PGE2 levels in cells mock-challenged with ethanol vehicle. Inhibition of PGE2 synthesis by test compounds is calculated as a percentage of the activity in the presence of drug versus the activity in the positive control samples.

[5] = CHO[hCOX-2] cells, 10 μM AA, 15 min preincubation, read-out: COX-2 (IC50 mM) CHO
[6] = U-937 cell microsomes, read-out: COX-1 (IC50 mM) U-937
[7] = human whole blood, clotting-induced TxB2, 1 h, read-out: COX-1 (IC50 mM) HWB

T1 sequence (P23219 24-599): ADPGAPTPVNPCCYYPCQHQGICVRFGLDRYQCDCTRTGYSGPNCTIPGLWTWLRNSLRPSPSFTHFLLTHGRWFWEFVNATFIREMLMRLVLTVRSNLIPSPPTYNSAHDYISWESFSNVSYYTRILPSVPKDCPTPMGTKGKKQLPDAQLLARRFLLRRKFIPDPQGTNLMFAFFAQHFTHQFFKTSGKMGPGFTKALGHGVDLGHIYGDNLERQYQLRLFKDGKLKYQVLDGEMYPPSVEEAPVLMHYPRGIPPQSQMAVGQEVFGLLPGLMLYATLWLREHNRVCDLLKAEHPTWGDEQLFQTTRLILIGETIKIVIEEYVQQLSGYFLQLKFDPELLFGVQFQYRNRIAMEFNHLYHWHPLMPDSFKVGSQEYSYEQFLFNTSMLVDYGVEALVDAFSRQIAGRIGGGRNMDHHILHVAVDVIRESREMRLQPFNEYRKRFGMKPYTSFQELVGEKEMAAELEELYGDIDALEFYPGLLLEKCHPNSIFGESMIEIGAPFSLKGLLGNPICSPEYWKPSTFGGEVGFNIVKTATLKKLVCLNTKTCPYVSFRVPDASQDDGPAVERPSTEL

Structure (SMILES) | IC50 (COX-1 [1]; COX-1 (IC50 mM) U-937, U-937 cell microsomes) [mM] | IC50 (COX-2 [2]; read-out: COX-2 (IC50 mM) HWB) [mM] | IC50 (COX-1 [3]) [mM] | IC50 (COX-2 [4]; [5]) [nM] | IC50 (COX-1 [1]; [6]) [mM] | IC50 (COX-1 [3]; [7]) [mM] | IC50 (COX-2 [2]; COX-2 (IC50 mM) HWB) [mM] | IC50 (COX-2 [4]) [nM]
C[C@@H](O)[C@@H](C)Oc1ncc(C(F)(F)F)cc1-c1ccc(S(C)(=O)=O)cc1 [Example 23, 2-((2R,3R)-3-Hydroxy-2-butyloxy)-3-(4-methylsulfonyl)phenyl-5-trifluoromethylpyridine] | > 0.01 | 0.0005 | > 0.1 | 50 | – | – | – | –
C[C@]1(O)CCC[C@H]1Oc1ncc(C(F)(F)F)cc1-c1ccc(S(C)(=O)=O)cc1 (single isomer, unassigned) [Example 31, (+)-2-(cis-2-Hydroxy-2-methylcyclopentyloxy)-3-(4-methylsulfonyl)phenyl-5-trifluoromethylpyridine] | – | – | – | – | 0.037 | > 0.1 | – | –
CC(C)(O)CSc1ncc(C(F)(F)F)cc1-c1ccc(S(C)(=O)=O)cc1 [Example 43, 2-(2-Hydroxy-2-methyl-1-thiopropyloxy)-3-(4-methylsulfonyl)phenyl-5-trifluoromethylpyridine] | – | – | – | – | 0.003 to 0.01 | 0.039 | – | –
CC(C)(O)COc1ncc(Cl)cc1-c1ccc(S(C)(=O)=O)cc1 [Example 5, 5-Chloro-2-(2-hydroxy-2-methyl-1-propyloxy)-3-(4-methylsulfonyl)phenylpyridine] | – | 0.0036 | – | 110 | > 0.1 | – | – | –
C[C@H](CCO)Oc1ncc(C(F)(F)F)cc1-c1ccc(S(C)(=O)=O)cc1 [Example 41, 2-((2R)-4-Hydroxy-2-butyloxy)-3-(4-methylsulfonyl)phenyl-5-trifluoromethylpyridine] | – | 0.0004 | – | 40 | > 0.01 | – | – | –
CCC(O)(CC)COc1ncc(C(F)(F)F)cc1-c1ccc(S(C)(=O)=O)cc1 [Example 8, 2-(2-Hydroxy-2-ethyl-1-butyloxy)-3-(4-methylsulfonyl)phenyl-5-trifluoromethylpyridine] | – | 0.0011 | – | 190 | > 0.01 | – | – | –
CS(=O)(=O)c1ccc(-c2cc(C(F)(F)F)cnc2OCC2(O)CCCC2)cc1 [Example 13, 2-(1-Hydroxycyclopentyl)methoxy-3-(4-methylsulfonyl)phenyl-5-trifluoromethylpyridine] | – | – | – | – | 0.01 | 0.096 | – | –
CCC(O)(CC)[C@H](C)Oc1ncc(C(F)(F)F)cc1-c1ccc(S(C)(=O)=O)cc1 [Example 20, 2-((2S)-3-Ethyl-3-hydroxy-2-pentyloxy)-3-(4-methylsulfonyl)phenyl-5-trifluoromethylpyridine] | – | 0.0016 | – | 400 | > 0.01 | – | – | –
C[C@H](O)CCOc1ncc(C(F)(F)F)cc1-c1ccc(S(C)(=O)=O)cc1 [Example 38, 2-((3S)-3-Hydroxy-1-butyloxy)-3-(4-methylsulfonyl)phenyl-5-trifluoromethylpyridine] | – | 0.0059 | – | 260 | 0.003 to 0.01 | – | – | –
C[C@H](Oc1ncc(C(F)(F)F)cc1-c1ccc(S(C)(=O)=O)cc1)C(C)(C)O [Example 16, 2-((2S)-3-Hydroxy-3-methyl-2-butyloxy)-3-(4-methylsulfonyl)phenyl-5-trifluoromethylpyridine] | – | 0.0006 | – | 430 | > 0.01 | – | – | –
CC(CO)Sc1ncc(C(F)(F)F)cc1-c1ccc(S(C)(=O)=O)cc1 (stereo not drawn) [Example 50, 2-(3-Hydroxy-2-thiopropyloxy)-3-(4-methylsulfonyl)phenyl-5-trifluoromethylpyridine] | – | – | – | – | 0.001 to 0.003 | – | 0.0005 | 50
CS(=O)(=O)c1ccc(-c2cc(C(F)(F)F)cnc2OCC2(O)CCC2)cc1 [Example 12, 2-(1-Hydroxycyclobutyl)methoxy-3-(4-methylsulfonyl)phenyl-5-trifluoromethylpyridine] | – | 0.0013 | – | 50 | > 0.01 | – | – | –
COC(C)(C)COc1ncc(C(F)(F)F)cc1-c1ccc(S(C)(=O)=O)cc1 [Example 6, 2-(2-Methoxy-2-methyl-1-propyloxy)-3-(4-methylsulfonyl)phenyl-5-trifluoromethylpyridine] | – | < 0.0004 | – | 30 | 0.003 to 0.01 | – | – | –
CCC(Oc1ncc(C(F)(F)F)cc1-c1ccc(S(C)(=O)=O)cc1)C(C)(C)O (stereo not drawn) [Example 19, 2-(4-Hydroxy-4-methyl-3-pentyloxy)-3-(4-methylsulfonyl)phenyl-5-trifluoromethylpyridine] | – | 0.0005 | – | 320 | > 0.01 | – | – | –
C[C@]1(O)CCC[C@H]1Oc1ncc(C(F)(F)F)cc1-c1ccc(S(C)(=O)=O)cc1 (single isomer, unassigned) [Example 32, (-)-2-(cis-2-Hydroxy-2-methylcyclopentyloxy)-3-(4-methylsulfonyl)phenyl-5-trifluoromethylpyridine] | – | – | – | – | > 0.01 | > 0.1 | – | –
C[C@@]1(O)CCCC[C@@H]1Oc1ncc(C(F)(F)F)cc1-c1ccc(S(C)(=O)=O)cc1 (relative stereo) [Example 37, 2-(cis-2-Hydroxy-2-methylcyclohexyloxy)-3-(4-methylsulfonyl)phenyl-5-trifluoromethylpyridine] | – | 0.0065 | – | 570 | > 0.01 | – | – | –
CC(C)(O)CSc1ncc(Cl)cc1-c1ccc(S(C)(=O)=O)cc1 [Example 44, 5-Chloro-2-(2-Hydroxy-2-methyl-1-thiopropyloxy)-3-(4-methylsulfonyl)phenylpyridine] | – | 0.0015 | – | 40 | > 0.01 | – | – | –
C[C@H](O)[C@@H](C)Oc1ncc(C(F)(F)F)cc1-c1ccc(S(C)(=O)=O)cc1 [Example 25, 2-((2R,3S)-3-Hydroxy-2-butyloxy)-3-(4-methylsulfonyl)phenyl-5-trifluoromethylpyridine] | – | 0.0036 | – | 60 | > 0.01 | – | – | –
